Laboratory results from patent US20160106102A1, “KNOWN AND NEW HETEROCYCLIC COMPOUNDS AS PEST CONTROL AGENTS” (BAYER CROPSCIENCE AKTIENGESELLSCHAFT, priority 2013, published 2016).

Tested on: Myzus persicae
Experiment: Myzus persicae - spray test
Format: in vivo
Settings: application rate of 500 g/ha; after 6 days; sprayed Chinese cabbage leaf discs infested by all stages; 100% = all aphids killed
Procedure: Myzus persicae—spray test Solvent: 78 parts by weight of acetone • • 1.5 parts by weight of dimethylformamide Emulsifier: 0.5 part by weight of alkylaryl polyglycol ether To produce an appropriate active ingredient formulation, 1 part by weight of active ingredient is mixed with the specified amounts of solvent and emulsifier, and the concentrate is diluted to the desired concentration with emulsifier-containing water. Discs of Chinese cabbage leaves (Brassica pekinensis) infested by all stages of the green peach aphid (Myzus persicae) are sprayed with an active ingredient formulation of the desired concentration. After 6 days, the efficacy in % is determined. 100% means that all the aphids have been killed; 0% means that no aphids have been killed.

Row | SMILES | efficacy in %
1 | COc1nc(NC(=O)c2cccnc2)nn1C [Compound I-2-16] | 90%
2 | Cc1cc(NC(=O)c2cccnc2)nn1C(=O)NCc1ccccn1 [Compound I-1-329] | 90%
3 | Cc1cc(NC(=O)c2cccnc2)nn1CN1CCCNC1=O [Compound I-1-149] | 90%
4 | O=C(Nc1ccn(Cc2ncccn2)n1)c1cccnc1 [Compound I-1-9] | 100%
5 | O=C(Nc1ccn(-c2ncc(C(F)(F)F)cc2Cl)n1)c1cccnc1 [Compound I-1-63] | 100%
6 | Cc1cc(NC(=O)c2cccnc2)nn1Cc1nn(C)c(=O)n1C [Compound I-1-153] | 100%
7 | Cc1cc(NC(=O)c2cccnc2)nn1Cc1noc(C(C)(C)C)n1 [Compound I-1-285] | 90%
8 | Cc1cc(Cn2nc(NC(=O)c3cccnc3)cc2C)oc(=O)c1 [Compound I-1-154] | 90%
9 | COCCn1nc(N(C)C(=O)c2cccnc2)cc1C [Compound I-1-179] | 100%
10 | Cc1cccc(Cn2nc(NC(=O)c3cccnc3)cc2C)c1 [Compound I-1-50] | 90%
11 | COC(=O)C(C)(C)NC(=O)Cn1nc(NC(=O)c2cncc(F)c2)cc1C [Compound I-1-41] | 90%

Tested on: Myzus persicae
Experiment: Myzus persicae - sachet test
Format: in vivo
Settings: application rate of 6 ppm in nutrient medium; 100% = all animals killed
Method in brief: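 Green peach aphids feed through a sealed sachet on nutrient medium containing the water-diluted formulation (solvents: 2% N-methylpyrrolidone, 2% diacetone alcohol). Percent mortality read after the chosen time; 100% means all animals killed.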

Row | SMILES | efficacy (kill in %)
12 | Cc1cc(NC(=O)c2cccnc2)nn1C(=O)NCc1ccccn1 [Compound I-1-329] | 100%
13 | Cc1cc(NC(=O)c2cccnc2)nn1CN1CCCNC1=O [Compound I-1-149] | 100%
14 | O=C(Nc1ccn(Cc2ncccn2)n1)c1cccnc1 [Compound I-1-9] | 100%
15 | Cc1cc(NC(=O)c2cccnc2)nn1Cc1nn(C)c(=O)n1C [Compound I-1-153] | 100%
16 | Cc1cc(NC(=O)c2cccnc2)nn1Cc1noc(C(C)(C)C)n1 [Compound I-1-285] | 100%
17 | Cc1cc(Cn2nc(NC(=O)c3cccnc3)cc2C)oc(=O)c1 [Compound I-1-154] | 100%
18 | Cc1cc(NC(=O)c2cccnc2)nn1C(=O)NCCS(C)(=O)=O [Compound I-1-309] | 100%
19 | Cc1cc(NC(=O)c2cccnc2)nn1C(=O)NCCOc1ccccc1 [Compound I-1-168] | 100%
20 | Cc1cc(NC(=O)c2cccnc2)nn1Cc1csc(C(F)(F)F)n1 [Compound I-1-302] | 100%
21 | O=C(Nc1cnn(-c2ncccc2Br)n1)c1cccnc1 [Compound I-3-7] | 80%

Same assay, conditions: application rate of 30 ppm in nutrient medium; 100% = all animals killed

Row | SMILES | efficacy (kill in %)
22 | COc1nc(NC(=O)c2cccnc2)nn1C [Compound I-2-16] | 100%
23 | Cc1cc(NC(=O)c2cccnc2)nn1C(=O)NCc1ccccn1 [Compound I-1-329] | 100%
24 | Cc1cc(NC(=O)c2cccnc2)nn1CN1CCCNC1=O [Compound I-1-149] | 100%
25 | O=C(Nc1ccn(Cc2ncccn2)n1)c1cccnc1 [Compound I-1-9] | 100%
26 | O=C(Nc1ccn(-c2ncc(C(F)(F)F)cc2Cl)n1)c1cccnc1 [Compound I-1-63] | 100%
27 | Cc1cc(NC(=O)c2cccnc2)nn1Cc1nn(C)c(=O)n1C [Compound I-1-153] | 100%
28 | Cc1cc(NC(=O)c2cccnc2)nn1Cc1noc(C(C)(C)C)n1 [Compound I-1-285] | 100%
29 | Cc1cc(Cn2nc(NC(=O)c3cccnc3)cc2C)oc(=O)c1 [Compound I-1-154] | 100%
30 | Cc1cccc(Cn2nc(NC(=O)c3cccnc3)cc2C)c1 [Compound I-1-50] | 100%
31 | Cc1cc(NC(=O)c2cccnc2)nn1C(=O)NCCS(C)(=O)=O [Compound I-1-309] | 100%
32 | Cc1cc(NC(=O)c2cccnc2)nn1C(=O)NCCOc1ccccc1 [Compound I-1-168] | 100%
33 | O=C(Nc1cc(Cl)n(-c2ccccc2)n1)c1cccnc1 [Compound I-1-274] | 100%
34 | Cc1cc(NC(=O)c2cccnc2)nn1Cc1csc(C(F)(F)F)n1 [Compound I-1-302] | 100%
35 | O=C(Nc1cnn(-c2ncccc2Br)n1)c1cccnc1 [Compound I-3-7] | 100%
36 | O=C(Nc1cc(C2CC2)n(Cc2ccccc2)n1)c1cccnc1 [Compound I-1-56] | 100%

Tested on: not listed separately
Experiment: log P determination by LC-MS in the acidic range
Format: physicochemical
Settings: LC-MS in the acidic range
From the text: The LC-MS determination in the acidic range is effected at pH 2.7 using 0.1% aqueous formic acid and acetonitrile (contains 0.1% formic acid) as eluents, linear gradient from 10% acetonitrile to 95% acetonitrile. Alternatively, the determination is effected in the acidic range at pH 2.3 using 0.1% aqueous phosphoric acid and acetonitrile as eluents; linear gradient from 10% acetonitrile to 95% acetonitrile.

Row | SMILES | log P (acid)
37 | Cc1cc(NC(=O)c2cccnc2)nn1C(=O)NCc1ccccn1 [Compound I-1-329] | 0.88
38 | Cc1cc(NC(=O)c2cccnc2)nn1CN1CCCNC1=O [Compound I-1-149] | 0.62
39 | O=C(Nc1ccn(Cc2ncccn2)n1)c1cccnc1 [Compound I-1-9] | 0.42
40 | O=C(Nc1ccn(-c2ncc(C(F)(F)F)cc2Cl)n1)c1cccnc1 [Compound I-1-63] | 2.18
41 | Cc1cc(NC(=O)c2cccnc2)nn1Cc1nn(C)c(=O)n1C [Compound I-1-153] | 0.62
42 | Cc1cc(NC(=O)c2cccnc2)nn1Cc1noc(C(C)(C)C)n1 [Compound I-1-285] | 1.71
43 | COCCn1nc(N(C)C(=O)c2cccnc2)cc1C [Compound I-1-179] | 0.79
44 | COC(=O)C(C)(C)NC(=O)Cn1nc(NC(=O)c2cncc(F)c2)cc1C [Compound I-1-41] | 1.33
45 | Cc1cc(NC(=O)c2cccnc2)nn1C(=O)NCCS(C)(=O)=O [Compound I-1-309] | 0.97
46 | Cc1cc(NC(=O)c2cccnc2)nn1C(=O)NCCOc1ccccc1 [Compound I-1-168] | 2.18
47 | O=C(Nc1cc(Cl)n(-c2ccccc2)n1)c1cccnc1 [Compound I-1-274] | 2.1
48 | Cc1cc(NC(=O)c2cccnc2)nn1Cc1csc(C(F)(F)F)n1 [Compound I-1-302] | 1.93
49 | O=C(Nc1cc(C2CC2)n(Cc2ccccc2)n1)c1cccnc1 [Compound I-1-56] | 2.1

Same assay, conditions: Table 2, compounds of the formula (I-2); acidic range pH 2.7 or pH 2.3

Row | SMILES | log P (acid)
50 | COc1nc(NC(=O)c2cccnc2)nn1C [Compound I-2-16] | 0.00

Same assay, conditions: Table 3; HPLC on reversed-phase column (C 18), 55° C., acidic range (pH 2.7 or pH 2.3)

Row | SMILES | log P (acid)
51 | O=C(Nc1cnn(-c2ncccc2Br)n1)c1cccnc1 [Compound I-3-7] | 1.33
